{"source": "patent US20060160197A1", "about": "(priority 2004, published 2006)", "type_in_all_cases": "physicochemical", "key": {"[1]": {"assay": "Example 1 reactive solvent extraction, 70% Alamine 336/10% MIBK/20% kerosene, 25° C.", "conditions": "pH 2 to 3", "source_text": "A water-immiscible organic solvent (i.e., “first phase”) is subsequently mixed with the second phase, and forms a two-phase system (a water immiscible organic phase and an aqueous phase). The glycolic acid in the second phase forms a complex with the tertiary trialkyl amine in the first phase.\n(§1) A variety of analytical methods can be employed to analyze the reactants and products produced using the present methods include HPLC, GC, ion selective electrodes, MS, NMR, etc. HPLC was used to measure glycolic acid and various related products. Briefly, samples are diluted with water (as needed to be within HPLC detection range) and mixed 1:1 with 0.2 M n-propanol in water (HPLC internal standard). HPLC Analytical Method: (BioRad HPX 87H ion exclusion column (BioRad, Hercules, Calif.), 300 mm×7.8 mm; 0.01 N H2SO4 mobile phase; 1.0 mL/min flow at 50° C.; 10 μL injection volume; RI detector and UV 210 nm, 20 min analysis time). HPLC Equipment: (Waters 2695 ‘Alliance’ Separations Module, 2410 Refractive Index Detector, 2487 Dual λ Absorbance Detector and Empower Pro Software (Waters Corp, Milford, Mass.).\nSolvent Extraction Using Approximately 70% C8-C10 Trialkylamine in Combination with 10% Methyl Isobutyl Ketone and 20% Kerosene at 25° C.\nInto a 4-mL glass reactor equipped with magnetic stir bar was placed 1 mL of a mixed solvent containing 70% (volume/volume) of trialkyl amine (Alamine® 336; Cognis Corp., Cincinnati, Ohio), 10% (volume/volume) methyl isobutyl ketone (MIBK) and 20% (volume/volume) kerosene. The pH of an aqueous solution of ammonium glycolate (5 wt % to 40 wt %) was adjusted to about pH 2 to 3 with concentrated sulfuric acid (H2SO4), then 1 mL of the resulting aqueous solution was added to the reactor. The resulting mixture was stirred for 30 minutes at 25° C."}, "[2]": {"assay": "Example 21 back extraction with aqueous glycolic acid from loaded solvent (70% trialkylamine/30% toluene), 120° C.", "conditions": "70% C8-C10 trialkylamine/30% toluene, 40 psig nitrogen", "method": "as §1\nBack Extraction from a Loaded Solvent of Approximately 70% C8-C10 Trialkylamine in Combination with 30% Toluene\n(§2) The vessel was then closed, and the headspace purged with nitrogen. The resulting mixture was stirred for 60 minutes at 120° C. under 40 psig (˜275.8 kPa) nitrogen. The stirring was stopped and the two phases allowed to separate at 120° C., then the organic phase was sampled under pressure through the top dip tube into a Hoke cylinder, and aqueous phases was sampled under pressure through the bottom dip tube into another Hoke cylinder."}, "[3]": {"assay": "Example 22 back extraction using water from loaded solvent (70% trialkylamine/30% toluene), 140° C.", "conditions": "back extraction into deionized water, 70% C8-C10 trialkylamine/30% toluene, 40 psig nitrogen", "method": "as §1\nBack Extraction Using Water from a Loaded Solvent of Approximately 70% C8-C10 Trialkylamine in Combination with 30% Toluene\nas §2, with “Into a 85-mL pressure reaction glass tube (pressure reaction vessel, from Andrews Glass Co.) equipped with magnetic stir bar and double dip tubes was placed 10 mL deionized water and 10 mL of the loaded solvent (see Example 16). The vessel” for “The vessel”, “minutes at 140° C. under” for “minutes at 120° C. under”, “separate at 140° C., then” for “separate at 120° C., then”"}, "[4]": {"assay": "Example 15 reactive solvent extraction, 90% Alamine 336/10% xylenes, 75° C.", "conditions": "pH 2 to 3", "method": "as §1\nSolvent Extraction Using Approximately 90% C8-C10 Trialkylamine in Combination with 10% Xylenes at 75° C.\n(§3) Into a 4-mL glass reactor equipped with magnetic stir bar was placed 1 mL of a mixed solvent containing 90% (volume/volume) Alamine® 336 (Cognis), 10% (volume/volume) xylenes (mixed xylene isomers). The pH of an aqueous solution of ammonium glycolate (5 wt % to 40 wt %) was adjusted to pH 2 to 3 with concentrated sulfuric acid, then 1 mL of the resulting aqueous solution was added to the reactor. The resulting mixture was stirred for 30 minutes at 75° C."}, "[5]": {"assay": "Example 13 reactive solvent extraction, 90% Alamine 336/10% toluene, 75° C.", "conditions": "pH 2 to 3", "method": "as §1\nSolvent Extraction Using Approximately 90% C8-C10 Trialkylamine in Combination with 10% Toluene at 75° C.\nas §3, with “toluene.” for “xylenes (mixed xylene isomers).”"}, "[6]": {"assay": "Example 8 reactive solvent extraction, 90% Alamine 336/10% 1-octanol, 25° C.", "conditions": "pH 2 to 3", "method": "as §1\nSolvent Extraction Using Approximately 90% C8-C10 Trialkylamine in Combination with 10% 1-Octanol at 25° C.\nas §3, with “1-octanol.” for “xylenes (mixed xylene isomers).”, “25°” for “75°”"}, "[7]": {"conditions": "initial 3.6 wt % glycolic acid in aqueous phase"}, "[8]": {"conditions": "initial 8.5 wt % glycolic acid in aqueous phase"}, "[9]": {"conditions": "initial 12.1 wt % glycolic acid in aqueous phase"}, "[10]": {"conditions": "initial 16.1 wt % glycolic acid in aqueous phase"}, "[11]": {"conditions": "initial 20.6 wt % glycolic acid in aqueous phase"}, "[12]": {"conditions": "initial 25.1 wt % glycolic acid in aqueous phase"}, "[13]": {"conditions": "initial 29.1 wt % glycolic acid in aqueous phase"}, "[14]": {"conditions": "initial 32.8 wt % glycolic acid in aqueous phase"}}, "data": [{"smiles": "O=C(O)CO", "note": "[glycolic acid]", "values": [{"measurement": "Partition coefficient of glycolic acid (organic wt %/aqueous wt %)", "setting": "[1]; [7]", "value": 1.1}, {"measurement": "Partition coefficient of glycolic acid (organic wt %/aqueous wt %)", "setting": "[1]; [8]", "value": 1.1}, {"measurement": "Partition coefficient of glycolic acid (organic wt %/aqueous wt %)", "setting": "[1]; [9]", "value": 1.0}, {"measurement": "Partition coefficient of glycolic acid (organic wt %/aqueous wt %)", "setting": "[1]; [10]", "value": 0.94}, {"measurement": "Partition coefficient of glycolic acid (organic wt %/aqueous wt %)", "setting": "[1]; [11]", "value": 0.90}, {"measurement": "Partition coefficient of glycolic acid (organic wt %/aqueous wt %)", "setting": "[1]; [12]", "value": 0.85}, {"measurement": "Partition coefficient of glycolic acid (organic wt %/aqueous wt %)", "setting": "[1]; [13]", "value": 0.73}, {"measurement": "Partition coefficient of glycolic acid (organic wt %/aqueous wt %)", "setting": "[1]; [14]", "value": 0.67}, {"measurement": "Partition coefficient (wt % org./wt % aq.)", "setting": "[2]; initial 20.0 wt % glycolic acid in aqueous phase, 14.2 wt % in loaded solvent", "value": 0.54}, {"measurement": "Partition coefficient (wt % org./wt % aq.)", "setting": "[2]; initial 40.0 wt % glycolic acid in aqueous phase, 15.7 wt % in loaded solvent", "value": 0.54}, {"measurement": "Partition coefficient (wt % org./wt % aq.)", "setting": "[3]; initial 3.7 wt % glycolic acid in loaded solvent", "value": 0.26}, {"measurement": "Partition coefficient (wt % org./wt % aq.)", "setting": "[3]; initial 10.7 wt % glycolic acid in loaded solvent", "value": 0.30}, {"measurement": "Partition coefficient (wt % org./wt % aq.)", "setting": "[3]; initial 14.2 wt % glycolic acid in loaded solvent", "value": 0.38}, {"measurement": "Partition coefficient (wt % org./wt % aq.)", "setting": "[3]; initial 15.7 wt % glycolic acid in loaded solvent", "value": 0.28}, {"measurement": "Partition coefficient (wt % org./wt % aq.)", "setting": "[4]; [7]", "value": 0.55}, {"measurement": "Partition coefficient (wt % org./wt % aq.)", "setting": "[4]; [8]", "value": 0.55}, {"measurement": "Partition coefficient (wt % org./wt % aq.)", "setting": "[4]; [9]", "value": 0.66}, {"measurement": "Partition coefficient (wt % org./wt % aq.)", "setting": "[4]; [10]", "value": 0.64}, {"measurement": "Partition coefficient (wt % org./wt % aq.)", "setting": "[4]; [11]", "value": 0.65}, {"measurement": "Partition coefficient (wt % org./wt % aq.)", "setting": "[4]; [12]", "value": 0.73}, {"measurement": "Partition coefficient (wt % org./wt % aq.)", "setting": "[4]; [13]", "value": 0.75}, {"measurement": "Partition coefficient (wt % org./wt % aq.)", "setting": "[4]; [14]", "value": 0.72}, {"measurement": "Partition coefficient (wt % org./wt % aq.)", "setting": "[5]; [7]", "value": 0.51}, {"measurement": "Partition coefficient (wt % org./wt % aq.)", "setting": "[5]; [8]", "value": 0.58}, {"measurement": "Partition coefficient (wt % org./wt % aq.)", "setting": "[5]; [9]", "value": 0.67}, {"measurement": "Partition coefficient (wt % org./wt % aq.)", "setting": "[5]; [10]", "value": 0.63}, {"measurement": "Partition coefficient (wt % org./wt % aq.)", "setting": "[5]; [11]", "value": 0.65}, {"measurement": "Partition coefficient (wt % org./wt % aq.)", "setting": "[5]; [12]", "value": 0.73}, {"measurement": "Partition coefficient (wt % org./wt % aq.)", "setting": "[5]; [13]", "value": 0.75}, {"measurement": "Partition coefficient (wt % org./wt % aq.)", "setting": "[5]; [14]", "value": 0.75}, {"measurement": "Partition coefficient (wt % org./wt % aq.)", "setting": "[6]; [7]", "value": 1.09}, {"measurement": "Partition coefficient (wt % org./wt % aq.)", "setting": "[6]; [8]", "value": 1.03}, {"measurement": "Partition coefficient (wt % org./wt % aq.)", "setting": "[6]; [9]", "value": 1.30}, {"measurement": "Partition coefficient (wt % org./wt % aq.)", "setting": "[6]; [10]", "value": 1.20}, {"measurement": "Partition coefficient (wt % org./wt % aq.)", "setting": "[6]; [11]", "value": 1.20}, {"measurement": "Partition coefficient (wt % org./wt % aq.)", "setting": "[6]; [12]", "value": 1.10}, {"measurement": "Partition coefficient (wt % org./wt % aq.)", "setting": "[6]; [13]", "value": 0.99}, {"measurement": "Partition coefficient (wt % org./wt % aq.)", "setting": "[6]; [14]", "value": 0.82}]}]}
